Our source for the IC50 cytotoxicity (DAPI nuclear signal decrease) and IC50 values is PubChem BioAssay AID651630 (Sanford-Burnham Center for Chemical Genomics, 2012).

For one assay, the system named is DAPI. Put plainly: TAG lipid buildup inhibition with viability readout – cell-based, panel, Nile Red and DAPI fluorescence, H9c2, dose response (AID 651630).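 Further: cells exposed to compound overnight before fixation and staining.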 As to conditions: H9c2 cells, DAPI nuclear fluorescence (cytotoxicity counter-readout), oleic acid.
The subject of a further assay is TAG. Described as above. The conditions noted are these: H9c2 cells, Nile Red TAG fluorescence, oleic acid.

The source made the active and inactive calls.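 How the source made its calls: active means lipid-stain IC50 at or below a set limit, with nuclear-stain toxicity IC50 at least five times higher; inactive means the rest.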

What is called IC50 is the concentration at which inhibition is half-maximal.

As to `CCC1=Nc2cc(C(=O)NCCCOC)ccc2Sc2ccccc21`, the IC50 cytotoxicity (DAPI nuclear signal decrease) with DAPI (mean of runs) is > 25 µM (inactive); in the assay with DAPI (run 1) it was above 25 µM; in the assay with DAPI (run 2), above 25 µM. Further, the IC50 was > 25 µM (inactive) in the assay with TAG (mean of runs), above 25 µM in the assay with TAG (run 1) and above 25 µM in the assay with TAG (run 2).
For the compound `Cc1cc(NC(=O)CSc2nc(-c3ccco3)cc(C(F)(F)F)n2)no1`, the IC50 cytotoxicity (DAPI nuclear signal decrease) in the assay on DAPI (mean of runs) was > 25 µM (inactive); with DAPI (run 1), above 25 µM; with DAPI (run 2), above 25 µM. Further, the IC50 was > 25 µM (inactive) with TAG (mean of runs), above 25 µM in the assay with TAG (run 1) and above 25 µM in the assay with TAG (run 2).
Regarding `Clc1cccc(Nc2nc(-c3ccncc3)nc3ccccc23)c1`, the IC50 cytotoxicity (DAPI nuclear signal decrease) in the assay with DAPI (mean of runs) is > 25 µM (inactive); in the assay with DAPI (run 1), above 25 µM; in the assay with DAPI (run 2) it was above 25 µM. Further, the IC50 with TAG (run 1) is 18.9 µM; in the assay with TAG (run 2), above 25 µM.
In the case of `CCOC(=O)[C@H]1[C@H]2COc3ccc(C)cc3[C@@H]2N2C(=O)c3cc(Br)ccc3NC(=O)[C@@]12C`, the IC50 cytotoxicity (DAPI nuclear signal decrease) with DAPI (mean of runs) was > 25 µM (inactive); with DAPI (run 1), above 25 µM; in the assay on DAPI (run 2), above 25 µM. In addition, the IC50 in the assay on TAG (mean of runs) is 21.6 µM (inactive); in the assay on TAG (run 1) it was 22.2 µM; in the assay with TAG (run 2) it was 21 µM.
Take `CC(C)(Oc1ccc(Cl)cc1)C(=O)Nc1ccc2oc(-c3ccncc3)nc2c1`: the IC50 cytotoxicity (DAPI nuclear signal decrease) in the assay on DAPI (mean of runs) is > 25 µM (inactive); in the assay on DAPI (run 1), above 25 µM; in the assay with DAPI (run 2), above 25 µM. The values for the IC50 in the assay on TAG (mean of runs), in the assay on TAG (run 1) and with TAG (run 2) were > 25 µM (inactive), above 25 µM and above 25 µM, respectively.
`CN(C)CCNC(=O)c1cccc(-c2cnc3c(NC=O)cc(-c4cccc(C(F)(F)F)c4)cn23)c1`: the IC50 cytotoxicity (DAPI nuclear signal decrease) with DAPI (mean of runs) is > 25 µM (inactive); in the assay with DAPI (run 1) it was above 25 µM; in the assay on DAPI (run 2) it was above 25 µM. In addition, the IC50 was > 25 µM (inactive) in the assay on TAG (mean of runs), above 25 µM in the assay on TAG (run 1) and above 25 µM in the assay on TAG (run 2).
Regarding `CC(C)(C)OC(=O)N(CCc1ccccc1)Cc1ccccc1OCc1cccc(NC(=O)/C=C/c2ccccc2)c1`, the figures for the IC50 cytotoxicity (DAPI nuclear signal decrease) in the assay with DAPI (mean of runs), with DAPI (run 1) and in the assay with DAPI (run 2) were > 25 µM (inactive), above 25 µM and above 25 µM, respectively. The IC50 in the assay with TAG (mean of runs) is 15 µM; in the assay on TAG (run 1) it was 21 µM; in the assay with TAG (run 2), 8.93 µM.
`COc1cc(NC(=O)c2csc(N)n2)cc(C(=O)Nc2cccc(C(F)(F)F)c2)c1`: the IC50 cytotoxicity (DAPI nuclear signal decrease) is > 25 µM (inactive) in the assay with DAPI (mean of runs), above 25 µM with DAPI (run 1) and above 25 µM in the assay on DAPI (run 2). Moreover, the IC50 was 13.5 µM with TAG (mean of runs), 10.7 µM with TAG (run 1) and 16.4 µM in the assay with TAG (run 2).
As for `Oc1ccc(C[C@H]2CNC(=S)N2CC2CCCN2C[C@H](Cc2ccc(O)cc2)N2C[C@H](Cc3ccc(O)cc3)N(CC3CCCCCC3)C2=S)cc1` (stereo partly specified), the IC50 cytotoxicity (DAPI nuclear signal decrease) was > 25 µM (inactive) with DAPI (mean of runs), above 25 µM with DAPI (run 1) and above 25 µM with DAPI (run 2). In addition, the figures for the IC50 in the assay with TAG (mean of runs), in the assay with TAG (run 1) and with TAG (run 2) were 8.6 µM, 7.31 µM and 9.89 µM, respectively.
Turning to `CCOc1ccc2nc(NC(=O)CN3CCC(n4nnc5cc(F)ccc54)CC3)sc2c1`, the figures for the IC50 cytotoxicity (DAPI nuclear signal decrease) with DAPI (mean of runs), with DAPI (run 1) and with DAPI (run 2) were > 25 µM (inactive), above 25 µM and above 25 µM, respectively. The IC50 in the assay with TAG (mean of runs) was 21.3 µM (inactive); with TAG (run 1) it was 17.9 µM; in the assay on TAG (run 2), 24.6 µM.
On to `COc1ccccc1NC1=NC(c2ccc(Cl)cc2)N=C(N)N1` (stereo unspecified), for which the IC50 cytotoxicity (DAPI nuclear signal decrease) in the assay on DAPI (mean of runs) was > 25 µM (inactive); with DAPI (run 1), above 25 µM; in the assay on DAPI (run 2), above 25 µM. The IC50 is > 25 µM (inactive) in the assay with TAG (mean of runs), above 25 µM in the assay with TAG (run 1) and above 25 µM in the assay with TAG (run 2).
`CN(Cc1ccccc1)C(=O)c1ccc(Nc2nc(C(N)Cc3ccccc3)cs2)nc1` (stereo unspecified): the IC50 cytotoxicity (DAPI nuclear signal decrease) is > 25 µM (inactive) in the assay on DAPI (mean of runs), above 25 µM in the assay with DAPI (run 1) and above 25 µM in the assay with DAPI (run 2). For the same compound, the IC50 in the assay with TAG (run 1) was 20.9 µM; in the assay with TAG (run 2), above 25 µM.
Turning to `Fc1ccc(Oc2nc(-c3ccccn3)nc3ccccc23)cc1`, the IC50 cytotoxicity (DAPI nuclear signal decrease) in the assay on DAPI (mean of runs) is > 25 µM (inactive); in the assay with DAPI (run 1), above 25 µM; in the assay on DAPI (run 2) it was above 25 µM. Further, the IC50 in the assay on TAG (mean of runs) is > 25 µM (inactive); in the assay on TAG (run 1), above 25 µM; in the assay on TAG (run 2) it was above 25 µM.
Take `C=CCC[C@@H](Cc1ccc(F)cc1)C(=O)OC[C@@H](NC(=O)[C@@H](CC=C)CC(=O)N[C@H](CO)Cc1ccccc1)C(C)(C)C`: the IC50 cytotoxicity (DAPI nuclear signal decrease) was > 25 µM (inactive) in the assay on DAPI (mean of runs), above 25 µM in the assay with DAPI (run 1) and above 25 µM in the assay on DAPI (run 2). Further, the results for the IC50 in the assay on TAG (mean of runs), in the assay on TAG (run 1) and in the assay on TAG (run 2) were 9.45 µM, 8.65 µM and 10.2 µM, respectively.
Turning to `C[C@H](O)[C@@H]1CN2CCc3c([nH]c4ccc(-c5ccc6c(c5)OCO6)cc34)[C@@H]2C[C@@H]1N(C)C(=O)Nc1ccc(F)cc1`, the results for the IC50 cytotoxicity (DAPI nuclear signal decrease) with DAPI (mean of runs), with DAPI (run 1) and in the assay on DAPI (run 2) were > 25 µM (inactive), above 25 µM and above 25 µM, respectively. For the same compound, the concentration for half-maximal inhibition (IC50) in the assay with TAG (mean of runs) is 11 µM; in the assay with TAG (run 1), 7.28 µM; with TAG (run 2), 14.7 µM.
For `Cc1ccc(-c2nn(-c3ccccc3)cc2NC(=O)CCl)cc1`, the values for the IC50 cytotoxicity (DAPI nuclear signal decrease) with DAPI (run 1) and with DAPI (run 2) were 20.6 µM and above 25 µM, respectively. The IC50 in the assay with TAG (mean of runs) was > 25 µM (inactive); with TAG (run 1), above 25 µM; in the assay with TAG (run 2), above 25 µM.
In the case of `COc1ccc(OC)c(NS(=O)(=O)c2ccc(N3CCCC3=O)cc2)c1`, the IC50 cytotoxicity (DAPI nuclear signal decrease) with DAPI (mean of runs) was > 25 µM (inactive); in the assay with DAPI (run 1), above 25 µM; in the assay with DAPI (run 2), above 25 µM. The IC50 with TAG (mean of runs) was > 25 µM (inactive); in the assay with TAG (run 1) it was above 25 µM; in the assay with TAG (run 2) it was above 25 µM.
In the case of `COc1ccc2[nH]c(C)c(CCNCc3cn(C)c4ccccc34)c2c1`, the results for the IC50 cytotoxicity (DAPI nuclear signal decrease) with DAPI (mean of runs), in the assay with DAPI (run 1) and in the assay on DAPI (run 2) were > 25 µM (inactive), above 25 µM and above 25 µM, respectively. Also, the IC50 was 10.7 µM in the assay on TAG (mean of runs), 10.2 µM with TAG (run 1) and 11.2 µM in the assay on TAG (run 2).
Turning to `COc1cc(C2C3=C(COC3=O)Oc3cc4c(cc32)OCO4)ccc1O` (stereo unspecified), the IC50 cytotoxicity (DAPI nuclear signal decrease) in the assay with DAPI (mean of runs) was > 25 µM (inactive); in the assay with DAPI (run 1) it was above 25 µM; in the assay on DAPI (run 2), above 25 µM. Further, the IC50 in the assay on TAG (mean of runs) is 15.6 µM (inactive); in the assay with TAG (run 1) it was 14.9 µM; with TAG (run 2) it was 16.2 µM.
For `CC1(C)Cc2nc3sc4c(SCC(=O)NCc5ccco5)ncnc4c3cc2CO1`, the IC50 cytotoxicity (DAPI nuclear signal decrease) in the assay with DAPI (mean of runs) was > 25 µM (inactive); with DAPI (run 1), above 25 µM; in the assay on DAPI (run 2), above 25 µM. The IC50 with TAG (mean of runs) is > 25 µM (inactive); in the assay with TAG (run 1), above 25 µM; in the assay with TAG (run 2), above 25 µM.
For `COc1cccc(C2c3c(C)nn(-c4ccc([N+](=O)[O-])cc4)c3N=C3C(=O)Nc4ccccc4N32)c1` (stereo unspecified), the IC50 cytotoxicity (DAPI nuclear signal decrease) was > 25 µM (inactive) in the assay on DAPI (mean of runs), above 25 µM with DAPI (run 1) and above 25 µM in the assay on DAPI (run 2). Further, the IC50 was 7.79 µM in the assay with TAG (mean of runs), 7.32 µM in the assay with TAG (run 1) and 8.26 µM with TAG (run 2).
Turning to `CCOc1ccc(CCNC(=O)CN2CCN(Cc3ccccc3F)C2=O)cc1OCC`, the IC50 cytotoxicity (DAPI nuclear signal decrease) in the assay on DAPI (run 1) and with DAPI (run 2) was above 25 µM in each case. For the same compound, the IC50 was 3.01 µM in the assay with TAG (mean of runs), 2.44 µM in the assay with TAG (run 1) and 3.57 µM with TAG (run 2).
With `Nc1c(Cl)cc(-c2csc(N3CCCC3c3nc4cc(Cl)c(N5CCCCC5)cc4n3CCCO)n2)cc1Cl` (stereo unspecified), the IC50 cytotoxicity (DAPI nuclear signal decrease) was 15.6 µM (inactive) with DAPI (mean of runs), 14.5 µM with DAPI (run 1) and 16.6 µM with DAPI (run 2). The values for the IC50 with TAG (mean of runs), in the assay on TAG (run 1) and in the assay on TAG (run 2) were 3.56 µM, 2.87 µM and 4.26 µM, respectively.
For `C[C@H]1CCCCO[C@H](CN(C)CC2CCCCC2)[C@@H](C)CN([C@@H](C)CO)C(=O)c2cc(NS(=O)(=O)c3ccccc3)ccc2O1`, the IC50 cytotoxicity (DAPI nuclear signal decrease) in the assay on DAPI (mean of runs) was > 25 µM (inactive); in the assay on DAPI (run 1), above 25 µM; in the assay with DAPI (run 2), above 25 µM. The values for the half-maximal inhibitory concentration (IC50) in the assay with TAG (run 1) and in the assay with TAG (run 2) were 22.5 µM and above 25 µM, respectively.
`O=C(NCc1nnnn1-c1ccc(F)cc1)c1ccc([N+](=O)[O-])o1`: the IC50 cytotoxicity (DAPI nuclear signal decrease) in the assay with DAPI (mean of runs) was 11.8 µM (inactive); with DAPI (run 1), 11.8 µM; with DAPI (run 2), 11.9 µM. In addition, the IC50 in the assay on TAG (mean of runs) was 18.9 µM (inactive); in the assay on TAG (run 1), 21.7 µM; in the assay on TAG (run 2), 16 µM.
Regarding `COC(=O)C1=C(C)N(Cc2ccccc2)C(=NCc2cc(OC)c(OC)c(OC)c2)N[C@H]1c1ccc(Br)cc1`, the results for the IC50 cytotoxicity (DAPI nuclear signal decrease) in the assay with DAPI (mean of runs), in the assay with DAPI (run 1) and in the assay with DAPI (run 2) were > 25 µM (inactive), above 25 µM and above 25 µM, respectively. The IC50 was > 25 µM (inactive) in the assay with TAG (mean of runs), above 25 µM with TAG (run 1) and above 25 µM with TAG (run 2).
